Reference: US20250263370A1 (Tay Therapeutics Limited, priority 2022, published 2025)

Legend:
BRD4 BD1 = BRD4 BD1 (Homo sapiens (Human), UniProt O60885); test: NanoBRET bromodomain assay, NanoLuc-BRD4-BD1 fusion in HEK293 cells; assay type: cell-based; details: top concentration 10 μM
BRD4 BD2 = BRD4 BD2 (Homo sapiens (Human), UniProt O60885); test: NanoBRET bromodomain assay, NanoLuc-BRD4-BD2 fusion in HEK293 cells; details: for IC50: BRD4 BD2 (IC50), NanoBRET, HEK293 cells, top concentration 10 μM; for Fold selectivity: IC50 for BRD4 BD1 divided by IC50 for BRD4 BD2, qualitative if an IC50 is at the upper limit;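 for all read-outs here: tracer displacement BRET read in transfected cells after 2 h compound exposure at 37 °C, signal in milliBRET units corrected against no-tracer background wells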

| IC50 (BRD4 BD1) | IC50 (BRD4 BD2) | Fold selectivity (BRD4 BD2) | remaining activity at 10 µM (BRD4 BD2; HEK293, read-out: BRD4 BD2 % Activity Remaining @ 10 uM, 10 uM, (2) = second batch) | SMILES |
| --- | --- | --- | --- | --- |
| ≥ 10 µM | 0.2 to 1 µM | X (Fold >2 and ≤50) |  | CCNC(=O)c1cc(OC(C)c2ccc(C(F)(F)F)cc2)c(C(=O)NC)[nH]1 (racemic) [Example 1, N^5-ethyl-N^2-methyl-3-(1-(4-(trifluoromethyl)phenyl)ethoxy)-1H-pyrrole-2,5-dicarboxamide] |
| ≥ 10 µM | 0.05 to 0.2 µM | XX (Fold >50 and ≤200) |  | CCNC(=O)c1cc(OC(C)c2ccccc2C(F)(F)F)c(C(=O)NC)[nH]1 (racemic) [Example 2, N^5-ethyl-N^2-methyl-3-(1-(2-(trifluoromethyl)phenyl)ethoxy)-1H-pyrrole-2,5-dicarboxamide] |
| ≥ 10 µM | 0.05 to 0.2 µM | XX (Fold >50 and ≤200) |  | CCNC(=O)c1cc(OC(C)c2cccc(Cl)c2)c(C(=O)NC)[nH]1 (racemic) [Example 3, 3-(1-(3-chlorophenyl)ethoxy)-N^5-ethyl-N^2-methyl-1H-pyrrole-2,5-dicarboxamide] |
| ≥ 10 µM | 0.05 to 0.2 µM | XX (Fold >50 and ≤200) |  | CCNC(=O)c1cc(OC(C)c2ccccc2C)c(C(=O)NC)[nH]1 (racemic) [Example 5, N^5-ethyl-N^2-methyl-3-(1-(o-tolyl)ethoxy)-1H-pyrrole-2,5-dicarboxamide] |
| ≥ 10 µM | 0.2 to 1 µM | X (Fold >2 and ≤50) |  | CCNC(=O)c1cc(OC(C)c2ccccc2Cl)c(C(=O)NC)[nH]1 (racemic) [Example 6, 3-(1-(2-chlorophenyl)ethoxy)-N^5-ethyl-N^2-methyl-1H-pyrrole-2,5-dicarboxamide] |
| ≥ 10 µM | > 10 µM | — (Fold ≥0 and ≤2) |  | CCNC(=O)c1cc(OC(CCOC)c2ccccc2)c(C(=O)NC)[nH]1 (racemic) [Example 8, N^5-ethyl-3-(3-methoxy-1-phenylpropoxy)-N^2-methyl-1H-pyrrole-2,5-dicarboxamide] |
| ≥ 10 µM | > 10 µM | — (Fold ≥0 and ≤2) |  | CCNC(=O)c1cc(OC(C)c2ccc(C#N)cc2)c(C(=O)NC)[nH]1 (racemic) [Example 9, 3-(1-(4-cyanophenyl)ethoxy)-N^5-ethyl-N^2-methyl-1H-pyrrole-2,5-dicarboxamide] |
| ≥ 10 µM | > 10 µM | — (Fold ≥0 and ≤2) |  | CCNC(=O)c1cc(OC(COC)c2ccccc2)c(C(=O)NC)[nH]1 (racemic) [Example 10, N^5-ethyl-3-(2-methoxy-1-phenylethoxy)-N^2-methyl-1H-pyrrole-2,5-dicarboxamide] |
| ≥ 10 µM | > 10 µM | — (Fold ≥0 and ≤2) |  | CCNC(=O)c1cc(OC(C)c2ccccc2C#N)c(C(=O)NC)[nH]1 (racemic) [Example 11, 3-(1-(2-cyanophenyl)ethoxy)-N^5-ethyl-N^2-methyl-1H-pyrrole-2,5-dicarboxamide] |
| ≥ 10 µM | 0.2 to 1 µM | X (Fold >2 and ≤50) |  | CCNC(=O)c1cc(OC(C)c2ccc(F)c(F)c2)c(C(=O)NC)[nH]1 (racemic) [Example 12, 3-(1-(3,4-difluorophenyl)ethoxy)-N5-ethyl-N2-methyl-1H-pyrrole-2,5-dicarboxamide] |
| ≥ 10 µM | 0.2 to 1 µM | X (Fold >2 and ≤50) |  | CCNC(=O)c1cc(OC(C)c2cccc(F)c2F)c(C(=O)NC)[nH]1 (racemic) [Example 13, 3-(1-(2,3-difluorophenyl)ethoxy)-N^5-ethyl-N^2-methyl-1H-pyrrole-2,5-dicarboxamide] |
| ≥ 10 µM | 0.2 to 1 µM | X (Fold >2 and ≤50) |  | CCNC(=O)c1cc(OC(C)c2ccc(F)cc2F)c(C(=O)NC)[nH]1 (racemic) [Example 14, 3-(1-(2,4-difluorophenyl)ethoxy)-N^5-ethyl-N^2-methyl-1H-pyrrole-2,5-dicarboxamide] |
| ≥ 10 µM | > 10 µM | — (Fold ≥0 and ≤2) |  | CCNC(=O)c1cc(OC(c2ccccc2)C2CC2)c(C(=O)NC)[nH]1 (racemic) [Example 63, 3-(cyclopropyl(phenyl)methoxy)-N^5-ethyl-N^2-methyl-1H-pyrrole-2,5-dicarboxamide] |
| ≥ 10 µM | 1 to 10 µM | X (Fold >2 and ≤50) |  | CCNC(=O)c1cc(OC(CO)c2ccccc2)c(C(=O)NC)[nH]1 (racemic) [Example 73, N^5-ethyl-3-(2-hydroxy-1-phenylethoxy)-N^2-methyl-1H-pyrrole-2,5-dicarboxamide] |
| ≥ 10 µM | > 10 µM | — (Fold ≥0 and ≤2) |  | CCNC(=O)c1cc(OC(c2ccccc2)C(C)C)c(C(=O)NC)[nH]1 (racemic) [Example 77, N^5-ethyl-N^2-methyl-3-(2-methyl-1-phenylpropoxy)-1H-pyrrole-2,5-dicarboxamide] |
| ≥ 10 µM | 0.2 to 1 µM | X (Fold >2 and ≤50) | 30% | CCNC(=O)c1cc(OC(C)c2ccccn2)c(C(=O)NC)[nH]1 (racemic) [Example 96, N^5-ethyl-N^2-methyl-3-(1-(pyridin-2-yl)ethoxy)-1H-pyrrole-2,5-dicarboxamide] |
| ≥ 10 µM | 0.05 to 0.2 µM | XX (Fold >50 and ≤200) |  | CCNC(=O)c1cc(OC(C)c2ccc(Cl)cc2)c(C(=O)NC)[nH]1 (racemic) [Example 122, 3-(1-(4-chlorophenyl)ethoxy)-N^5-ethyl-N^2-methyl-1H-pyrrole-2,5-dicarboxamide] |
| ≥ 10 µM | 0.2 to 1 µM | X (Fold >2 and ≤50) |  | CCNC(=O)c1cc(OC(C)c2cccc(F)c2)c(C(=O)NC)[nH]1 (racemic) [Example 123, N^5-ethyl-3-(1-(3-fluorophenyl)ethoxy)-N^2-methyl-1H-pyrrole-2,5-dicarboxamide] |
| ≥ 10 µM | 0.05 to 0.2 µM | XX (Fold >50 and ≤200) |  | CCNC(=O)c1cc(OC(C)c2ccccc2F)c(C(=O)NC)[nH]1 (racemic) [Example 124, N^5-ethyl-3-(1-(2-fluorophenyl)ethoxy)-N^2-methyl-1H-pyrrole-2,5-dicarboxamide] |
| ≥ 10 µM | 0.2 to 1 µM | X (Fold >2 and ≤50) |  | CCNC(=O)c1cc(OC(C)c2cccc(C(F)(F)F)c2)c(C(=O)NC)[nH]1 (racemic) [Example 125, N^5-ethyl-N^2-methyl-3-(1-(3-(trifluoromethyl)phenyl)ethoxy)-1H-pyrrole-2,5-dicarboxamide] |
| ≥ 10 µM | 0.2 to 1 µM | X (Fold >2 and ≤50) |  | CCNC(=O)c1cc(OC(CC)c2ccccc2)c(C(=O)NC)[nH]1 (racemic) [Example 126, N^5-ethyl-N^2-methyl-3-(1-phenylpropoxy)-1H-pyrrole-2,5-dicarboxamide] |
| ≥ 10 µM | 0.05 to 0.2 µM | XX (Fold >50 and ≤200) |  | CCNC(=O)c1cc(OC(C)c2ccc(F)cc2)c(C(=O)NC)[nH]1 (racemic) [Example 127, N^5-ethyl-3-(1-(4-fluorophenyl)ethoxy)-N^2-methyl-1H-pyrrole-2,5-dicarboxamide] |
| ≥ 10 µM | > 10 µM | — (Fold ≥0 and ≤2) |  | CCNC(=O)c1cc(OC(C)c2ccc(Cl)cc2)c(C(=O)NC)[nH]1 (single isomer, unassigned) [Example 19, 3-(1-(4-chlorophenyl)ethoxy)-N^5-ethyl-N^2-methyl-1H-pyrrole-2,5-dicarboxamide] |
|  |  | — (Fold ≥0 and ≤2) |  | CNC(=O)c1[nH]c(C(=O)NC2CCC2)cc1OC(C)c1ccc(Cl)cc1 (single isomer, unassigned) [Example 28, 3-(1-(4-chlorophenyl)ethoxy)-N^5-cyclobutyl-N^2-methyl-1H-pyrrole-2,5-dicarboxamide] |
|  |  | — (Fold ≥0 and ≤2) |  | CCNC(=O)c1cc(OC(C)c2c(C)cccc2C)c(C(=O)NC)[nH]1 (single isomer, unassigned) [Example 64, 3-(1-(2,6-dimethylphenyl)ethoxy)-N^5-ethyl-N^2-methyl-1H-pyrrole-2,5-dicarboxamide] |
|  |  | — (Fold ≥0 and ≤2) |  | CNC(=O)c1[nH]c(C(=O)N[C@H]2CC[C@H](O)CC2)cc1O[C@@H](C)c1ccnnc1 (single isomer, unassigned) [Example 92, N^5-(4-hydroxycyclohexyl)-N^2-methyl-3-(1-(pyridazin-4-yl)ethoxy)-1H-pyrrole-2,5-dicarboxamide] |

| SMILES | IC50 (BRD4 BD1) | IC50 (BRD4 BD2) | Fold selectivity (BRD4 BD2) | remaining activity at 10 µM (BRD4 BD2; HEK293, read-out: BRD4 BD2 % Activity Remaining @ 10 uM, 10 uM, (2) = second batch) |
| --- | --- | --- | --- | --- |
| CCNC(=O)c1cc(OC(C)c2cccc(OC)c2)c(C(=O)NC)[nH]1 (racemic) [Example 7, N^5-ethyl-3-(1-(3-methoxyphenyl)ethoxy)-N^2-methyl-1H-pyrrole-2,5-dicarboxamide] | ≥ 10 µM | 0.2 to 1 µM | X (Fold >2 and ≤50) |  |
| CCNC(=O)c1cc(OC(C)c2ccc3c(c2)COC3)c(C(=O)NC)[nH]1 (racemic) [Example 15, 3-(1-(1,3-dihydroisobenzofuran-5-yl)ethoxy)-M-ethyl-N^2-methyl-1H-pyrrole-2,5-dicarboxamide] | ≥ 10 µM | 0.2 to 1 µM | X (Fold >2 and ≤50) |  |
| CCCC(Oc1cc(C(=O)NCC)[nH]c1C(=O)NC)c1ccccc1 (racemic) [Example 16, N^5-ethyl-N^2-methyl-3-(1-phenylbutoxy)-1H-pyrrole-2,5-dicarboxamide] | ≥ 10 µM | 0.2 to 1 µM | X (Fold >2 and ≤50) |  |
| CCNC(=O)c1cc(OC(C)c2cccc(C)c2)c(C(=O)NC)[nH]1 (racemic) [Example 17, N^5-ethyl-N^2-methyl-3-(1-(m-tolyl)ethoxy)-1H-pyrrole-2,5-dicarboxamide] | ≥ 10 µM | 0.05 to 0.2 µM | XX (Fold >50 and ≤200) |  |
